In test [1] the target is T1, human HDAC11 (Homo sapiens, UniProt Q96DB2).
T1 sequence (Q96DB2 1-347): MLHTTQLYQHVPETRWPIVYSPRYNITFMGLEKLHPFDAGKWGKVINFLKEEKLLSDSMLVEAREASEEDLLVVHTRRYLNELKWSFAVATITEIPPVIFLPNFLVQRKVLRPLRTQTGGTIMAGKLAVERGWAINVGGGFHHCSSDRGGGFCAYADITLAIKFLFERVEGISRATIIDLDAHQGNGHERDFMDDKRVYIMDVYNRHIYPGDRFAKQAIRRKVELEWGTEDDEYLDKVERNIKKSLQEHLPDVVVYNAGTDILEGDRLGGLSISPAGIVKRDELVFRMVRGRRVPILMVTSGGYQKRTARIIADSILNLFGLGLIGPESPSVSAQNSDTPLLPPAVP
The experiment in a line: Continuous fluorescence HDAC11 activity assay with peptidic substrate 1. The format is biochemical.

The target of test [2] is T1, human HDAC11. The experiment in a line: Discontinuous fluorescence-based. The format is biochemical.

Molecules are shown by their SMILES.

The IC50 is the midpoint of a concentration-inhibition curve. A lower IC50 goes with higher potency.

For the compound `CCCC(CCC)C(=O)O` [valproate], the IC50 against human HDAC11 [1] and at human HDAC11 [2] was over 40 µM in each case.

Take `Nc1ccccc1NC(=O)c1ccc(CNc2nccc(-c3cccnc3)n2)cc1` [mocetinostat, N-(2-aminophenyl)-4-(4-pyridin-3-ylpyrimidin-2-ylamino)methylbenzamide]: the IC50 at human HDAC11 [1] and at human HDAC11 [2] was over 40 µM throughout.

On to `C/C=C1\NC(=O)[C@H]2CSSCC/C=C/[C@H](CC(=O)N[C@H](C(C)C)C(=O)N2)OC(=O)[C@H](C(C)C)NC1=O` [romidepsin], for which the concentration for half-maximal inhibition (IC50) against human HDAC11 [2] is 4.81 ± 0.04 µM.

The record behind these values is PMC6882135 (ACS Omega, 2019).
